Tests used:
Translocator protein [1] = target: T1, Translocator protein (Rattus norvegicus, UniProt P16257); experiment: Binding affinity against peripheral-type benzodiazepine receptor (PBR) from rat cortex homogenate using [3H]-PK 11195 as radioligand
Translocator protein [2] = target: T1, Translocator protein; experiment: Inhibition of binding of [3H]-PK 11195 to peripheral-type benzodiazepine receptor (PBR) from rat cortex homogenate
Translocator protein [3] = target: T1, Translocator protein; experiment: Displacement of [3H]-Ro- 5-4864 from rat adrenal peripheral-type benzodiazepine receptor (PBR)
Translocator protein [4] = target: T1, Translocator protein; experiment: Displacement [3H]-PK 11195 from rat adrenal peripheral-type benzodiazepine receptor (PBR)

T1 sequence (P16257 whole entry, looked up): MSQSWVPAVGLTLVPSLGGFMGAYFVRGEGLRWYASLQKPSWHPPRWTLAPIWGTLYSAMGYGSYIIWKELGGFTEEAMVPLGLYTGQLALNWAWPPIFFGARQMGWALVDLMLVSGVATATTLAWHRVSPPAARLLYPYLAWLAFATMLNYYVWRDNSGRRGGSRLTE

Structure (SMILES)	Ki (Translocator protein [1]) [nM]	IC50 (Translocator protein [2]) [nM]	Ki (Translocator protein [3]) [nM]	Ki (Translocator protein [4]) [nM]
CC(=O)OCC1=C(c2ccccc2)Oc2ccccc2-n2cccc21	754	1930		
CCC1=C(OC(C)=O)c2cccn2-c2ccccc2O1		> 5000		
CCN(CC)C(=O)OC1=C(c2ccc(C)cc2)Oc2ccccc2-n2cccc21	0.36	0.94	1.9	1.9
CC(=O)OC1=C(c2ccccc2)Sc2ccccc2-n2cccc21	7.6			
CCC1=C(OC(=O)N(C)C)c2cccn2-c2ccccc2O1	230	589		
CN(C)C(=O)OC1=C(c2ccccc2)Oc2c(Cl)cccc2-n2cccc21	0.51	1.3		
CC(=O)OC1=C(c2ccc(Cl)cc2)Sc2ccccc2-n2cccc21	11.7			
O=C(OC1=C(c2ccccc2)Oc2ccccc2-n2cccc21)C1CCCCC1	32	81.9		
CCN(CC)C(=O)OC1=C(c2ccccc2)Oc2ccccc2-n2cccc21	0.26	0.68		
COc1ccc(C2=C(OC(=O)c3cccnc3)c3cccn3-c3ccccc3S2)cc1		> 100000		
CC(=O)OC1=C(c2ccc3ccccc3c2)Oc2ccccc2-n2cccc21	30	76.6		
COC(=O)C1=C(c2ccccc2)Oc2ccccc2-n2cccc21	57.8	148		
CC(=O)C1=C(c2ccccc2)Oc2ccccc2-n2cccc21	25.2	64.6		
CC(=O)OC1=C(c2ccc(C)cc2)Oc2ccccc2-n2cccc21	0.91	2.3	1.7	2.8
CN(C)C(=O)OC1=C(c2ccc(N=[N+]=[N-])cc2)Oc2ccccc2-n2cccc21	1.4	3.6	3.6	4.8
CC(=O)OC1=C(c2ccccc2)Oc2cc3ccccc3cc2-n2cccc21	108	278		
CN(C)C(=O)OC1=C(c2ccccc2)Sc2c(Cl)cccc2-n2cccc21	1.8		2.6	2.5
CCN(CC)C(=S)OC1=C(c2ccccc2)Oc2ccccc2-n2cccc21	1.5	3.8		
CN(C)C(=O)OC1=C(c2ccccc2)Sc2ccccc2-n2cccc21	3.5			
CC(=O)OC1=C(c2ccccc2)Oc2ccccc2-n2cccc21	4.7	12.1		
CC(=O)OC1=C(c2ccccc2)Sc2ccc(C)cc2-n2cccc21	263			
CC(=O)OC1=C(c2ccccc2)Sc2cc(C)ccc2-n2cccc21	44			
